Measured values: article PMC8472512, “Synthesis and Biochemical Evaluation of Baicalein Prodrugs” (Pharmaceutics, 2021)
Values after ≈ are worked out from the molar mass of the structure shown.

What was measured:
[1] = PAMPA (parallel artificial membrane permeability assay)
Method: (§1) The assay was conducted as reported previously [15]. The samples were analyzed as described below in mouse plasma stability assay.

[2] = Kinetic solubility in phosphate buffer (pH 7.4); type: physicochemical; conditions: aqueous buffer, kinetic from dmso stock; shake-flask, 0.1 M phosphate buffer (pH 7.4), triplicate
Method: Stock solutions of the test compounds (baicalein and compounds 1–7) prepared at 10 mM in DMSO were diluted with 0.1 M potassium phosphate buffer (pH 7.4) in Mini-UniPrep filter vial (PTFE membrane, 0.45 μm) to a final concentration of 500 µM. The mixture was then shaken at 800 rpm for 90 min at rt and filtered by slowly pressing the upper tube of the Mini-Uniprep vial. The filtrate (300 µL) was then transferred to an HPLC vial containing same volume of acetonitrile. Sample analysis was conducted as described above in Chemical stability assay.

[3] = logD7.4 by shake-flask method; type: physicochemical; conditions: 0.1 M phosphate buffer (pH 7.4), duplicate
Method: The assay was conducted as reported previously. Briefly, 100 µM test solutions were prepared by diluting 10 mM stock solutions of the test compounds (baicalein and compounds 1–7) in 0.1 M potassium phosphate buffer (pH 7.4) saturated with 1-octanol. Standard solutions were prepared by diluting each test solution with the same volume of DMSO in HPLC vials. Partition solutions were prepared by mixing each test solution and 1-octanol saturated with 0.1 M potassium phosphate buffer (pH 7.4) at three different volume ratios, namely 1:0.02, 1:0.2 and 1:2, in HPLC vials. The partition solutions were then vortexed for 1 h at 1500 rpm at rt. The standard solutions and the aqueous phase (bottom layer) of each partition solution were analyzed directly from the HPLC vials as described above in Chemical stability assay. The logD7.4 values were calculated by the following equation: logD7.4=log(2×As/Ap−1)·Vt/Vo where As and Ap are, respectively, the peak areas of the standard and the aqueous phase of the partition solutions and Vt and Vo the volumes of test solution and 1-octanol of the partition solutions.

[4] = Chemical stability in physiologically-relevant solutions; type: physicochemical; conditions: 37 °C; for remaining at 4 h, 10 μM: at 4 h vs time 0
Method: Stock solutions of the test compounds (baicalein, compounds 1–7) prepared in MeOH at 10 mM were diluted in 0.1 N HCl and 0.1 M potassium phosphate buffer (pH 6.5 and 7.4) in triplicate to a final concentration of 10 μM. The mixtures were then incubated at 37 °C in a shaking water bath. Samples taken at 0, 1, 2, 3 and 4 h were analyzed by Thermo UltiMate 3000 series HPLC system. Chromatographic separation was performed on an Agilent Eclipse Plus C18 column (100 × 4.6 mm, 3.5 µm) kept at 40 °C with isocratic elution at a flow rate of 0.6 mL/min using a mixture of 0.1 vol% TFA in deionized water and acetonitrile as the mobile phase. The detection wavelengths were 277 and 270 nm for baicalein and compounds 1–7, respectively. Peak areas of the analytes on the UV chromatograms were used to calculate % remaining values at each time points.
The stability of baicalein and of the synthesized carbamate prodrugs (1–7) was determined in solutions mimicking gastric (0.1 N HCl, pH ~ 1), intestinal (pH 6.5 phosphate buffer), and physiological (pH 7.4 phosphate buffer) conditions. […]. […] […]. The degradation of the carbamate prodrugs was accompanied by the formation of baicalein under all conditions in this study (data not shown). Although the exact reason for this pH-dependent stability remains unknown, it is plausible that the side chains of amino acids somehow affect the hydrolysis of the carbamate bond of the prodrugs.

in vitro = conditions: PAMPA
Method: as §1

Mouse pharmacokinetics = type: in vivo, male ICR mice; conditions: mice
Method: Pharmacokinetic studies were conducted with male ICR mice (8 weeks old; 30–35 g body wt.) purchased from Koatech Company (Pyeongtaek, Korea), as reported previously. Intravenous dosing solutions were prepared in EtOH/20% aqueous HPβCD (10/90 vol%) at 2 and 3 mg/mL for baicalein and compound 2, respectively. Oral dosing solutions were prepared in EtOH/tween 80/20% aqueous HPβCD (10/10/80 vol%) at 1 and 1.5 mg/mL for baicalein and compound 2, respectively. Plasma sample analysis was performed as described above in mouse plasma stability assay.

[5] = pH 6.5 buffer (0.1 M potassium phosphate)
[6] = pH 7.4 buffer (0.1 M potassium phosphate)
[7] = male, ICR, mouse, iv, plasma analyte after single i.v. dose of baicalein 10 mg/kg
[8] = male, ICR, mouse, iv, plasma analyte after single i.v. dose of compound 2 15 mg/kg
[9] = male, ICR, mouse, po, plasma analyte after single p.o. dose of baicalein 10 mg/kg
[10] = male, ICR, mouse, po, plasma analyte after single p.o. dose of compound 2 50 mg/kg
[11] = male, ICR, mouse, in vivo, iv, plasma analyte after single i.v. dose of compound 2 15 mg/kg
[12] = male, ICR, mouse, in vivo, po, plasma analyte after single p.o. dose of compound 2 50 mg/kg

Row | SMILES | solubility kinetic at 90 min [2] [µM] | logD [3] | half-life at 10 μM ([4]; buffer, pH 1, 0.1 N HCl, 10 μM) [h] | remaining at 4 h, 10 μM ([4]; buffer, pH 1, 0.1 N HCl) [%] | half-life at 10 μM [4, 5] [h] | remaining at 4 h, 10 μM ([4]; pH 6.5 buffer) [%] | half-life at 10 μM [4, 6] [h] | remaining at 4 h, 10 μM ([4]; pH 7.4 buffer) [%] | Papp (in vitro) [×10⁻⁶ cm/s] | also measured
1 | CC(C)(C)NCC(O)COc1cccc2c1CC(O)C(O)C2 (stereo not shown) [nadolol, reference compound] |  |  |  |  |  |  |  |  |  | Papp [1]: < 0.1 ×10⁻⁶ cm/s
2 | CC[C@@H](C)[C@H](NC(=O)Oc1cc2oc(-c3ccccc3)cc(=O)c2c(O)c1O)C(=O)O [Compound 3, (2S,3R)-2-((((5,6-Dihydroxy-4-oxo-2-phenyl-4H-chromen-7-yl)oxy)carbonyl)amino)-3-methylpentanoic acid] | 447 ± 36.9 (≈ 191 µg/mL) | 0.25 | > 4 | 98.9 ± 5 | > 4 | 90.2 ± 1.1 | > 4 | 80.1 ± 2.5 |  | 
3 | NS(=O)(=O)c1cc2c(cc1Cl)NCNS2(=O)=O [hydrochlorothiazide] |  |  |  |  |  |  |  |  | < 0.1 | 
4 | C[C@H](NC(=O)Oc1cc2oc(-c3ccccc3)cc(=O)c2c(O)c1O)C(=O)O [Compound 6, (S)-2-((((5,6-Dihydroxy-4-oxo-2-phenyl-4H-chromen-7-yl)oxy)carbonyl)amino)propanoic acid] | 400 ± 14.7 (≈ 154 µg/mL) | -0.18 | > 4 | 90.2 ± 4.1 | > 4 | 81.8 ± 1.3 | > 4 | 76.6 ± 1.7 |  | Papp [1]: < 0.01 ×10⁻⁶ cm/s
5 | C[C@@H](O)[C@H](NC(=O)Oc1cc2oc(-c3ccccc3)cc(=O)c2c(O)c1O)C(=O)O [Compound 4, (2S,3R)-2-((((5,6-Dihydroxy-4-oxo-2-phenyl-4H-chromen-7-yl)oxy)carbonyl)amino)-3-hydroxybutanoic acid] | 347 ± 11.4 (≈ 144 µg/mL) | -0.05 | > 4 | 109 ± 3.4 | 2.8 ± 0.1 | 37.3 ± 0.2 | 1.7 ± 0.1 | 20 ± 1 |  | 
6 | O=C(O)CNC(=O)Oc1cc2oc(-c3ccccc3)cc(=O)c2c(O)c1O [Compound 7, 2-((((5,6-Dihydroxy-4-oxo-2-phenyl-4H-chromen-7-yl)oxy)carbonyl)amino)acetic acid] | 357.1 ± 1.4 (≈ 133 µg/mL) | -0.39 | 1.5 ± 0.3 | 23.3 ± 3.6 | > 4 | 82.2 ± 1 | > 4 | 76.7 ± 0.3 |  | 
7 | CC(C)NCC(O)COc1cccc2ccccc12 (stereo not shown) [propranolol] |  |  |  |  |  |  |  |  | > 1 | 
8 | CC(C)C[C@H](NC(=O)Oc1cc2oc(-c3ccccc3)cc(=O)c2c(O)c1O)C(=O)O [Compound 1, (S)-2-((((5,6-Dihydroxy-4-oxo-2-phenyl-4H-chromen-7-yl)oxy)carbonyl)amino)-4-methylpentanoic acid] | 443 ± 65.9 (≈ 189 µg/mL) | 0.39 | 1.4 ± 0.3 | 17.4 ± 2.1 | > 4 | 92.9 ± 5 | > 4 | 98 ± 3.6 |  | 
9 | O=C(O)[C@H]1O[C@@H](Oc2cc3oc(-c4ccccc4)cc(=O)c3c(O)c2O)[C@H](O)[C@@H](O)[C@@H]1O [Baicalin] |  |  |  |  |  |  |  |  |  | time plasma analyte was above the quantitation limit (Mouse pharmacokinetics; after single i.v. dose of 10 mg/kg baicalein): 24 h; time plasma analyte was above the quantitation limit (Mouse pharmacokinetics; after single p.o. dose of 10 mg/kg baicalein, 24 h time course): 24 h; AUC(0-inf) (Mouse pharmacokinetics; [7]): 2600 ± 510 ng·h/mL; AUC(0-t) (Mouse pharmacokinetics; [7]): 2450 ± 490 ng·h/mL; Cmax (Mouse pharmacokinetics; [7]): 4590 ± 870 ng/mL; Tmax (Mouse pharmacokinetics; [7]): 0.1 h; half-life (Mouse pharmacokinetics; [7]): 6.2 ± 2.8 h; AUC(0-inf) (Mouse pharmacokinetics; [8]): 500 ± 170 ng·h/mL; AUC(0-t) (Mouse pharmacokinetics; [8]): 200 ± 88 ng·h/mL; Cmax (Mouse pharmacokinetics; [8]): 90 ± 10 ng/mL; Tmax (Mouse pharmacokinetics; [8]): 0.1 h; half-life (Mouse pharmacokinetics; [8]): 6.6 ± 1.6 h; AUC(0-inf) (Mouse pharmacokinetics; [9]): 4890 ± 1400 ng·h/mL; AUC(0-t) (Mouse pharmacokinetics; [9]): 4420 ± 1440 ng·h/mL; Cmax (Mouse pharmacokinetics; [9]): 2260 ± 670 ng/mL; Tmax (Mouse pharmacokinetics; [9]): 0.2 h; half-life (Mouse pharmacokinetics; [9]): 6.3 ± 3 h; AUC(0-t) (Mouse pharmacokinetics; [10]): 680 ± 210 ng·h/mL; Cmax (Mouse pharmacokinetics; [10]): 130 ± 40 ng/mL; Tmax (Mouse pharmacokinetics; [10]): 6 ± 2.8 h
10 | O=C(N[C@H](CO)[C@H](O)c1ccc([N+](=O)[O-])cc1)C(Cl)Cl [chloramphenicol] |  |  |  |  |  |  |  |  | > 1 | 
11 | COCCc1ccc(OCC(O)CNC(C)C)cc1 (stereo not shown) [metoprolol] |  |  |  |  |  |  |  |  | > 1 | 
12 | CC(C)[C@H](NC(=O)Oc1cc2oc(-c3ccccc3)cc(=O)c2c(O)c1O)C(=O)O [Compound 2, (S)-2-((((5,6-Dihydroxy-4-oxo-2-phenyl-4H-chromen-7-yl)oxy)carbonyl)amino)-3-methylbutanoic acid] | 479.2 ± 4.4 (≈ 198 µg/mL) | 0.04 | > 4 | 105 ± 3.5 | > 4 | 92.8 ± 4.2 | > 4 | 74.4 ± 6.6 |  | Papp [1]: 0.04 ± 0.02 ×10⁻⁶ cm/s; AUC(0-inf) (Mouse pharmacokinetics; [11]): 88700 ± 43200 ng·h/mL; AUC(0-t) (Mouse pharmacokinetics; [11]): 88600 ± 43200 ng·h/mL; Cmax (Mouse pharmacokinetics; [11]): 65100 ± 4290 ng/mL; Tmax (Mouse pharmacokinetics; [11]): 0.1 h; half-life (Mouse pharmacokinetics; [11]): 1.9 ± 0.6 h; clearance (Mouse pharmacokinetics; male, ICR, mouse, in vivo, iv, single i.v. dose of compound 2 15 mg/kg): 3.33 mL/min/kg; Vd (Mouse pharmacokinetics; male, ICR, mouse, in vivo, iv, single i.v. dose of compound 2 15 mg/kg, read-out: VSS): 0.4 ± 0.1 L/kg; AUC(0-inf) (Mouse pharmacokinetics; [12]): 5820 ± 1710 ng·h/mL; AUC(0-t) (Mouse pharmacokinetics; [12]): 5430 ± 1730 ng·h/mL; Cmax (Mouse pharmacokinetics; [12]): 2930 ± 590 ng/mL; Tmax (Mouse pharmacokinetics; [12]): 0.3 ± 0.09 h; half-life (Mouse pharmacokinetics; [12]): 1.7 ± 0.5 h; bioavailability (Mouse pharmacokinetics; male, ICR, mouse, in vivo, oral bioavailability of compound 2, p.o. 50 mg/kg vs i.v. 15 mg/kg): 2 ± 0.6%
